Results as given in patent US11779582B2, “Composition for preventing or treating metastatic ovarian cancer, endometrial cancer or breast cancer” (LEMONEX INC., priority 2017, dated 2023).

What was measured:
Format in all cases: cell-based
[1] = tested on: monolayer cultured SKOV3ip1 ovarian cancer cells; test: crystal violet cell viability, 2D monolayer culture
Protocol: 2D monolayer culture was implemented in the following manner: cells were cultured at 37° C., 5% CO2 humidified atmosphere using RPMI 1640 medium (Corning, NY, USA) supplemented with 10% fetal bovine serum (Gibco, NY, USA) and 10 U/ml penicillin/streptomycin.
Crystal violet staining was implemented to determine the cell viability in the monolayer cultured cell model and sphere cultured cell model. In order to implement the crystal violet staining in the monolayer culture model, SKOV3ip1 cells (5×10^4) were dispensed in commercial 24-well plates and incubated overnight. Thereafter, the drug was dispensed with a desired concentration for experiment into each well, followed by further incubation for 72 hours. 300 μl of 0.2% crystal violet solution was added to each well, followed by further incubation for 20 minutes while gently stirring the same. The stained cells were washed with distilled water until a clean background is observed. For assessment using a colorimeter, the crystal violet dye was extracted with 1% SDS/PBS and absorbance was measured at 570 nm wavelength by EMax PLUS microplate reader (Molecular Device, USA).
The monolayer cultured or sphere cultured SKOV3ip1 cells were treated with the tyrosine kinase inhibitor and paclitaxel for 72 hours, the cell viability was determined by the crystal violet colorimeter, and results thereof are shown in FIG. 3.

[2] = tested on: SKOV3-TR ovarian cancer cells; test: crystal violet cell viability in paclitaxel-resistant cells
Protocol: SKOV3-TR cell line was offered from Sood AK in MD-Anderson Cancer Center (USA) and then used in the present experiments.
Paclitaxel resistance of each of SKOV3 and SKOV3-TR was determined by measuring the cell viability through crystal violet colorimetric assay. This experiment was implemented three times and a difference in results thereof was estimated by student's t-test.
(§1) According to the same procedures as described in the previous examples, each cell line was divided and cultured by 2D monolayer culture and 3D sphere culture, respectively. Then, a change due to administration of BGJ398 alone or in combination with paclitaxel was analyzed through morphological analysis and crystal violet staining assay.

[3] = tested on: HEC1B endometrial cancer cell line (3D sphere culture); test: morphological analysis and crystal violet staining, 3D sphere culture
Protocol: (§2) With respect to the cancer cell lines listed in Table 1 below, synergistic effects of paclitaxel and BGJ398 were further examined. According to the same procedures as described in the previous examples, each cell line was divided and cultured by 2D monolayer culture and 3D sphere culture, respectively. Then, a change due to BGJ398 administration was analyzed through morphological analysis and crystal violet staining assay. All cell lines were purchased from ATCC and used in the present experiments, and detailed information thereof are shown in Table 3 below.
as §1, with “With respect to the cancer cell lines listed in Table 2 below, synergistic effects of paclitaxel and BGJ398 were further examined. According” for “According”, “analysis.” for “analysis and crystal violet staining assay.”

[4] = tested on: Hs578T breast cancer cell line (3D sphere culture); test: as above
Protocol: as §2
as §1, with “With respect to the cancer cell lines listed in Table 2 below, synergistic effects of paclitaxel and BGJ398 were further examined. According” for “According”, “analysis.” for “analysis and crystal violet staining assay.”

[5] = tested on: SKOV3ip1-TR ovarian cancer cells; test: microscopic analysis of cell shape change; settings: BGJ398 in combination with paclitaxel (FIG. 21)
Protocol: FIG. 21 illustrates a change in cell shape, when paclitaxel alone, BGJ398 alone or in combination with […] was administered to the SKOV3ip1-TR ovarian cancer cells.

[6] = tested on: SKOV3-TR; test: crystal violet staining assay, cisplatin and BGJ398, 2D culture; settings: BGJ398 in combination with cisplatin (FIGS. 30 and 31)
Protocol: (§3) According to the same procedures as described in the previous examples, each cell line was subjected to 2D culture and a change thereof upon administration of cisplatin alone, BGJ398 alone or in combination with cisplatin was analyzed through crystal violet staining assay.

[7] = tested on: SKOV3ip1; test: as above; settings: SKOV3ip1, BGJ398 in combination with cisplatin (FIGS. 30 and 31)
Protocol: as §3

[8] = tested on: sphere cultured SKOV3ip1 cells; test: microscopic observation of aggregated (spheroid) form; settings: 5 μM BGJ398, 3 μM TAE648, 5 μM imatinib (FIG. 5)
Protocol: For 3D sphere culture, SKOV3ip1 cells (1×10^6) were dispensed on ultra-low adherent 6-well plate (Corning NY, USA), and then, cultured in 5% CO2 incubator using RPMI 1640 medium supplemented with 10% fetal bovine serum (Gibco, NY, USA) and 10 U/ml penicillin/streptomycin (Gibco).

[9] = tested on: phosphorylated AKT and XIAP in SKOV3-TR ovarian cancer cells; test: immunostaining of AKT down-signal mechanism; settings: BGJ398 treatment, paclitaxel alone or in combination with BGJ398 (FIG. 27)
Protocol: FIG. 27 illustrates results of identifying whether there is expression of AKT, phosphorylated AKT, BAD, phosphorylated BAD, XIAP, CASP9, p42/44 and/or phosphorylated p42/44, in order to determine AKT down-signal mechanism in relation to cell survival and cell apoptosis in the cells when paclitaxel alone or in combination with BGJ398 was administered to SKOV3-TR ovarian cancer cells. […] The reason of this fact is considered because a level of XIAP expression in the cells is decreased thus to improve paclitaxel sensitivity.

[10] = tested on: AKT phosphorylation and PARP cleavage in SKOV3-TR ovarian cancer cells; test: PathScan Intracellular Signaling Array Kit; settings: BGJ398 in combination with paclitaxel (FIG. 26)
[11] = tested on: SKOV3-TR ovarian cancer cells; test: FACS assay of DNA content (propidium iodide), Sub-G1
Protocol: More particularly, the degree of cell apoptosis can be confirmed when DNA content in the cell is treated by propidium iodide (PI) staining and is assessed by FACS. If cell apoptosis occurs, genes in the cells are disrupted and Sub-Gi region below G1 is increased.
FIG. 23 graphically illustrates FACS results, which were divided by a cell cycle in the same experiments described above. Referring to this figure, it can be seen that the treatment using 2.5 μM BGJ398 in combination with 50 nM paclitaxel increases Gub-G1 cells in SKOV-TR cells by about 2.5 times, compared to 50 nM paclitaxel alone, thereby improving anticancer activity.

**Q.** `CCN1CCN(c2ccc(Nc3cc(N(C)C(=O)Nc4c(Cl)c(OC)cc(OC)c4Cl)ncn3)cc2)CC1` [BGJ398, 3-(2,6-dichloro-3,5-dimethoxyphenyl)-1-[6-[4-(4-ethylpiperazin-1yl)anilino]pyrimidin-4-yl]-1-methylurea] was tested. Which cell viability ([1]; monolayer cultured SKOV3ip1, 72 hours, different concentrations, crystal violet colorimeter (FIG. 3)) did it give?
**A.** not effected

**Q.** And the cytotoxicity ([1]; monolayer cultured SKOV3ip1, BGJ398 concentration increased to 5 μM)?
**A.** cytotoxicity was not revealed

**Q.** And the anticancer activity ([2]; BGJ398 at increasing concentration in combination with paclitaxel (FIG. 18))?
**A.** higher anticancer activity with the increased concentration of BGJ398

**Q.** What about the anticancer activity ([2]; BGJ398 in combination with paclitaxel at increasing concentration (FIG. 19)) of the same compound?
**A.** higher anticancer activity with the increased concentration of paclitaxel

**Q.** What about the anticancer activity ([2]; BGJ398 in combination with paclitaxel vs paclitaxel alone (FIG. 16)) of the same compound?
**A.** significantly improved

**Q.** What about the anticancer activity ([2]; BGJ398 in combination with paclitaxel, 2D monolayer culture and 3D sphere culture (FIG. 17)) of the same compound?
**A.** more improved

**Q.** And the “cytotoxicity, cell sphere morphology” value ([3]; 3D sphere culture HEC1B, BGJ398 alone or in combination with paclitaxel)?
**A.** cell spheres are collapsed

**Q.** What about the cell apoptosis ([3]; sphere cultured HEC1B, BGJ398 alone) of the same compound?
**A.** cell apoptosis can be found

**Q.** And the “cytotoxicity, cell sphere morphology” value ([4]; 3D sphere culture Hs578T, BGJ398 alone or in combination with paclitaxel)?
**A.** cell spheres are collapsed

**Q.** And the cell apoptosis ([4]; sphere cultured Hs578T, BGJ398 alone)?
**A.** cell apoptosis can be found

**Q.** And the “paclitaxel resistance / anticancer activity (cell shape)” value [5]?
**A.** can block paclitaxel resistance, thereby increasing anticancer activity

**Q.** And the anticancer activity [6]?
**A.** anticancer activity is improved

**Q.** And the anticancer activity [7]?
**A.** anticancer activity is improved

**Q.** And the “aggregated (spheroid) form of cells” value [8]?
**A.** did not retain a normal coagulation state

**Q.** And the XIAP expression [9]?
**A.** XIAP expression is reduced

**Q.** What about the “level of phosphorylated AKT” value [9] of the same compound?
**A.** significantly decreased

**Q.** And the “cleaved PARP” value [10]?
**A.** increasing the cleaved PARP

**Q.** What about the “phosphorylation of AKT at serine 473” value [10] of the same compound?
**A.** phosphoylation of AKT at serine 473 is reduced

**Q.** And the “increase of Sub-G1 cells” value ([11]; 2.5 μM BGJ398 in combination with 50 nM paclitaxel, compared to 50 nM paclitaxel alone (FIG. 23))?
**A.** about 2.5 times

**Q.** What about the “apoptotic cells (region below G1, Sub-G1)” value ([11]; BGJ398 in combination with paclitaxel (FIG. 22)) of the same compound?
**A.** the number of apoptotic cells is increased
